# Measurements as given in US11630102B2, “Composition and method for modulating fibroblast growth factor receptor 3 activation” (ACADEMIA SINICA, priority 2017, dated 2023).
# Entries after “also recorded” stand apart in the source; their conditions may differ. Like-named read-outs stand apart in the source and are kept apart here.
# Key:
# [1] = target: T1, TDI FGFR3 (Homo sapiens, UniProt P22607, Y373C); test: cell-based translocation assay (ring spot count, high-content imaging); settings: for inhibition of FGFR3 activation (in words): cells stably expressing SH2(SH2B)-RrGFP and TDI FGFR3
# Method: (§2) PKC412 was prepared as a 6% (w/w) stock in DMSO. Live-cell imaging was performed at 37° C. under humidified conditions in a 5% CO2 incubator.
# (§3) For high-content screening, all steps of sample-plate preparation, including compound treatment, fixation and plate washing, were fully automated and were performed using a Bio-Tek EL405uv system (Bio-Tek Instruments, Inc., Winooski, Vt., USA). U2OS cells stably expressing TDI FGFR3 and SI-12-RrGFP were seeded at a density of 4×10^3 cells/well in black 96-well Packard Viewplates, incubated overnight in complete medium at 37° C. in a CO2 incubator, and then transferred to 100 μl serum-free medium containing PKC412 or plant extract. The final DMSO concentration was 1%. After incubating for 1 hour at 37° C. in a CO2 incubator, cells were fixed with 4.5% formaldehyde and cell nuclei were labeled with a 2 μg/ml Hoechst stain solution (Sigma-Aldrich).
# (§4) Cell images were automatically obtained using an ArrayScan VTI HCS Reader (Cellomics, Pittsburgh, Pa., USA). Filter sets appropriate for detecting the two fluorophores were used, and a 20×0.4 numerical aperture microscope objective was used for imaging. The Compartmental Analysis BioApplication (Cellomics) was used to analyze the images after optimization of the application's protocol settings. For these analyses, the Compartmental Analysis used the Hoechst-labeled nuclei to identify individual cells, and the nucleus (Circle) and cytoplasmic area (Ring) of the cells were defined by parameter settings in the software. The GFP spots in the Ring region were defined and the spot numbers (Ring Spot Count) and spot intensity (Ring Spot Intensity) were quantified by the software.
# [2] = target: T1, TDI FGFR3
# Method: as §2, §3, §4
# [3] = solubility of Pa derivatives compared to Pa; assay type: physicochemical
# [4] = system: KMS-11 cells; test: KMS-11 cell proliferation assay (WST-1); assay type: cell-based, human; settings: FGFR3-dependent growth (Y373C FGFR3)
# Method: Cell proliferation was determined by a colorimetric assay of cell viability based on the cleavage of the tetrazolium salt WST-1 (Roche) by mitochondrial dehydrogenases. Cells were grown in serum-free conditions for 24 h and then were seeded in 96-well plates at a density of 50,000 cells/well in RPMI. Cells were incubated with 1 nM aFGF and 50 μg/ml heparin and various doses of plant extracts in 200 μl RPMI at a final concentration of 1% DMSO. Plates were incubated for 72 h at 37° C., 5% CO2. The WST-1 assay was performed according to the manufacturer's instructions. The absorbance of the formazan dye formed, which correlates with the number of metabolically active cells in the culture, was measured at 450 nm and 690 nm 1 h after adding the reagent. Each experimental condition was performed in triplicate.
# The effects of hit 4, hit 4-1, and hit 4-2 were examined on the growth of human myeloma cell line KMS-11 […] expressing TDI FGFR3. KMS-11 cells were stimulated with aFGF/heparin and incubated with DMSO negative control, PKC412 positive control, or 10 μg/ml and 100 μg/ml doses of each tested plant extract. Cell growth was measured as described above.
# Fractions were analyzed for their ability to inhibit the FGFR3 activity-dependent growth of human myeloma cell line KMS-11 as described above in Example 3.
# [5] = system: FGFR3^ACH/ACH mice; test: treatment of achondroplasia mice; assay type: in vivo; settings: 0.09 mg/g/mouse for 7 weeks from 7 days of age
# Method: Femurs of mice were dissected and the flesh was removed. The lengths of the femurs were measured using a millimetre-scale calliper ruler.
# (§1) FGFR3^ACH/ACH mice beginning at 7 days of age were treated once-daily with 0.2 mg/g/mouse plant active fractions F4 and F4-IS11 by gavage in 200 μl PBS for 4 or 7 weeks. Control wild type littermates (WT) and FGFR3^ACH/ACH mice were treated with vehicle control. In additional studies, mice were treated with 0.09 mg/g/mouse purified Pa or vehicle control in a similar manner. Body weight and body length were measured weekly.
# Skeletons were analyzed by […] (Skyscan 1076 system, Bruker, Brussels, Belgium) as described above.
# [6] = system: WT mice; test: treatment of wild-type mice with Pa; assay type: in vivo; settings: 0.09 mg/g/mouse for 7 weeks from 7 days of age
# Method: as §1
# As mentioned above, Pa was identified as an active compound in the A. viridis extract by means of the method set forth above in Example 4. WT and FGFR3^ACH mice at 7 days of age were treated with vehicle (DMSO) or with 0.09 mg/g/mouse Pa for 7 weeks. The body weight of treated mice was measured weekly.
# T1 sequence (P22607 23-806 Y373C): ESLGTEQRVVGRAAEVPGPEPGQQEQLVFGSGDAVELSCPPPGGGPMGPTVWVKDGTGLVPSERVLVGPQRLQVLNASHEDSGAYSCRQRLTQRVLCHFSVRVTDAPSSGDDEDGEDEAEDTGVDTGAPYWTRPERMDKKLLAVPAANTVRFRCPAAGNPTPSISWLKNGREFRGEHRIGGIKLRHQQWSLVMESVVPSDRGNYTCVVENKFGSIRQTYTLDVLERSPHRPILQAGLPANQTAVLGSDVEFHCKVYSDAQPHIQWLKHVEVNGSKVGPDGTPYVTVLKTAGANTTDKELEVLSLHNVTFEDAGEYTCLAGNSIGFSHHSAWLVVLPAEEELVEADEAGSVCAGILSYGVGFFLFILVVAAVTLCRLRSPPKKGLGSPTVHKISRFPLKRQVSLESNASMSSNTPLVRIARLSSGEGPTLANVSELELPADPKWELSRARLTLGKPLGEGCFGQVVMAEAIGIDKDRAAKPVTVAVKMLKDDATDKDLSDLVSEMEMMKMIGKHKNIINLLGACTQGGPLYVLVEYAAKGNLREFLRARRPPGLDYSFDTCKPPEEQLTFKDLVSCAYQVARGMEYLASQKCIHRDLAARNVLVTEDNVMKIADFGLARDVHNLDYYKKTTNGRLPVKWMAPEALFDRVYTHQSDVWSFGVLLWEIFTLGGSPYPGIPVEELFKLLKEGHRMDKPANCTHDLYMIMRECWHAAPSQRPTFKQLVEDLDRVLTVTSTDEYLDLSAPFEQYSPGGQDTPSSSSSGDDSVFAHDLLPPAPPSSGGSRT
Compound,inhibition of FGFR3 activation (in words) [1],also measured
"NCC(=O)CCC(=O)O [5-aminolevulinic acid, reference compound]",did not,
"CO[C@@H]1[C@H](N(C)C(=O)c2ccccc2)C[C@H]2O[C@]1(C)n1c3ccccc3c3c4c(c5c6ccccc6n2c5c31)C(=O)NC4 [PKC412, reference compound]",,"time to disappearance of punctate GFP signals after treatment ([1]; SH2(SH2B)-RrGFP and TDI FGFR3 expressing cells, not seen with DMSO): ≤ 1 h"
Oc1cccc(-c2c3nc(c(-c4cccc(O)c4)c4ccc([nH]4)c(-c4cccc(O)c4)c4nc(c(-c5cccc(O)c5)c5ccc2[nH]5)CC4)C=C3)c1 [temoporfin],,inhibition of FGFR3 activation (in words) [2]: had FGFR3 inhibition activity
HCl-N-pheophorbide a [HCl-N-Pa],comparable FGFR3 inhibition activities,solubility as compared to Pa [3]: enhanced solubility
Na-pheophorbide a [NA-Pa],comparable FGFR3 inhibition activities,solubility as compared to Pa [3]: enhanced solubility
Pyropheophorbide a [PyroPa],inhibit FGFR3 activation; also recorded: stronger than any of the tested photosensitizers,
chlorophyllin A [reference compound],had FGFR3 inhibition activity,
pheophorbide a [Pa],inhibit FGFR3 activation,inhibition of KMS-11 cell proliferation [4]: inhibited FGFR3-dependent cell proliferation; body weight vs DMSO-treated mice [5]: increased body weight; body weight vs DMSO-treated mice [6]: increased body weight
pyropheophorbide-a methyl ester [reference compound],had FGFR3 inhibition activity,
